Entries after “also recorded” stand apart in the source; their conditions may differ. Like-named read-outs stand apart in the source and are kept apart here.
Key:
[1] = tested on: male mice; format: in vivo
Description: (§1) 2. Prolongation of the cerebral survival time in the case of hypoxaemia caused by sub-atmospheric pressure.
(§2) This neuropathological behaviour is induced in male mice by a progressive reduction of the pressure to 26.66 kPa in an observation chamber and is used as an indicator of the cerebral hypoxia period. It ends in the death of the experimental animal.

[2] = tested on: thrombocytes; assay: Inhibition of aggregation of thrombocytes; settings: in words
[3] = Cerebral protection / vaso-active and metabolism-regulating properties (overall); format: in vivo, mice; settings: in words
Description: The following methods have been used to investigate the pharmacodynamic properties of the compounds according to the invention:
1. Prolongation of cerebral survival time under hypoxaemia caused by NaNO2.
Starting from the results of Gibson and Blass (J. Neurochemistry 27, 1976), a cerebral hypoxia is produced in male mice by means of NaNO2 (225 mg/kg, subcutaneous). The cerebral hypoxia period is marked by a characteristic spasmodic behaviour and ends in the death of the experimental animals.
as §1, §2
3. Protection against amnesia induced by electric shock.
Starting from the results of Taber and Banuazizi (Psychopharmakologia 9, 1966), male mice are taught not to enter a certain compartment of the cage in order to avoid an electric shock. The response is extinguished by means of an electric shock administered via head electrodes (electric shock amnesia).

[4] = Tranquillising properties; format: in vivo; settings: in words
[5] = LD50 / toxicity and toleration; format: in vivo, mice; settings: mouse, in vivo, mice
[6] = tested on: mice; assay: LD50 / toxicity and toleration; format: in vivo; settings: in words

With `C(=C\c1ccccc1)/CN1CCN(C(c2ccccc2)c2ccccc2)CC1` [Cinnarizine, cinnarizine] the Sub-atmospheric pressure hypoxaemia ([1]; po) was “-”.

With `Cc1cccc(C)c1NC(=O)CN1CCCC1=O` [Example 6, 2-Oxo-1-pyrrolidinylacetic acid, 2,6-dimethylanilide] the “effect of inhibiting aggregation of thrombocytes” value [2] was “inhibiting aggregation of thrombocytes”, the “activity / effectiveness (vaso-active, metabolism-regulating, cerebral protection)” value (shortened to “activity / effectiveness”) [3] was “highly active; also recorded: excellent activity” and the “activity / effectiveness” value ([3]; listed as 2-Oxo-1-pyrrolidinylacetic acid-2,6-dimethylanilide) was “particularly effective”. The Sub-atmospheric pressure hypoxaemia ([1]; po) was “+”, the tranquillising properties [4] was “good tranquillising properties” and the LD50 ([5]; iv, administered intravenously) was 421 mg/kg. The LD50 ([5]; po, administered orally) was 1770 mg/kg, the toleration [6] was “well tolerated; also recorded: good toleration” and the toxicity [6] was “very low toxicity”.

In the case of `CN(C)CCOC(=O)COc1ccc(Cl)cc1` [Meclofenoxate, meclofenoxate], the Sub-atmospheric pressure hypoxaemia ([1]; po) is reported as “-”.

With `O=C(CN1CCCC1=O)Nc1ccccc1` [PA, 2-oxo-1-pyrrolidinylacetic acid anilide, reference compound] the “activity / effectiveness” value [3] was “exhibits none of these effects” and the Sub-atmospheric pressure hypoxaemia ([1]; po) was “-”.

For `COc1ccc(Cc2nccc3cc(OC)c(OC)cc23)cc1OC` [Papaverine, papaverine], the Sub-atmospheric pressure hypoxaemia ([1]; iv) was “-”.

In the case of `NC(=O)CN1CCCC1=O` [Piracetam, piracetam], the Sub-atmospheric pressure hypoxaemia ([1]; po) is reported as “+”.

In the case of `CC(C)NCC(O)COc1cccc2ccccc12` (stereo not drawn) [Propranol, propranolol], the Sub-atmospheric pressure hypoxaemia ([1]; po) is reported as “-”.

In the case of `Cc1ncc(CSSCc2cnc(C)c(O)c2CO)c(CO)c1O` [Pyritinol, pyritinol], the Sub-atmospheric pressure hypoxaemia ([1]; po) is reported as “-”.

With `CC[C@]12CCCN3CCc4c(n(c5ccccc45)[C@@](O)(C(=O)OC)C1)[C@@H]32` [Vincamine, vincamine] the Sub-atmospheric pressure hypoxaemia ([1]; po) was “+”.

— patent US4341790A, “Pyrrolidinylalkylcarboxylic acid amide derivatives, their preparation and pharmaceutical compositions containing them” (A. Nattermann & Cie. GmbH, priority 1979, dated 1982)
